Experimental data taken from publication PMC10410440, “Preclinical PK investigation of a novel IDO1/TDO dual inhibitor—SHR9146 in mouse plasma and tissues by LC-MS/MS” (Frontiers in Oncology, 2023).
“And” between values parts separate entries of the source, which are not always exact repeats. Identical values can stand only once. Like-named read-outs stand apart in the source and are kept apart here.

Test: Tissue distribution of SHR9146 in mice after oral gavage of 40 mg/kg
Format: in vivo, ICR mice
Conditions: female, 40 mg/kg oral gavage; for concentration at 1 h / concentration at 3 h / concentration at 6 h / concentration at 24 h: ICR, mouse, po
Experimental: ICR mice with body weight 16–26 g were supplied by Shanghai Lingchang Biotechnology Co., Ltd. (animal breeding license number SCXK (Shanghai) 2013-0018) and housed at Shanghai Institute of Materia Medica, Chinese Academy of Sciences [animal use license number SYXK (Shanghai) 2015-0027]. The mice used in this study were fasted overnight for 12 h but had free access to water. Food was supplied 4 h post-dose. All experiments in this study were conducted in accordance with the Guidelines for the Care and Use of Laboratory Animals of Shanghai Institute of Materia Medica, Chinese Academy of Sciences.
Another set of 30 mice were randomly assigned into five groups with equal numbers, males and females, for tissue distribution study with oral gavage at a single dose of 40 mg/kg at predetermined different time points: pre-dose and post dose at 1, 3, 6, and 24 h, respectively. The whole brain, heart, liver, spleen, lung, kidney, bladder, pancreas, testis, ovary, uterus, stomach, small intestine, adrenal gland, skin, skeletal muscle, thyroid gland, and abdominal fat tissues as well as the whole blood and plasma samples were harvested. Tissue samples were washed with 0.9% sodium chloride solution to remove the residual blood or contents, blotted on a filter paper, and stored at −70°C prior to the analysis.
Protein precipitation was selected for the pretreatment of both the plasma and the tissue homogenate prepared after thawing at room temperature, cut into pieces, and homogenized with a quintuple methanol–water mixture (1:1, v/v) for each tissue sample.
Briefly as follows, an aliquot of 25-μL plasma or tissue homogenate was spiked with 100 μL of internal standard solution (1 μg/mL for plasma, 0.2 μg/mL for tissue homogenate) and 300 μL of methanol added and vortex mixed for 60 s. The mixture was then centrifuged at 14,000 rpm at 4°C for 5.0 min, and the supernatant was diluted with methanol–water (4:1, v/v) in a ratio of 1:9 for the plasma or 1:1 for the tissue homogenate, and 5 μL of the resulting solution was injected for the LC-MS/MS analysis.
After oral administration of 40 mg/kg SHR9146, samples in different tissues at predetermined time points (pre-drug administration, post-drug administration at 1, 3, 6, and 24 h) were collected and prepared for the analysis. The drug concentrations of SHR9146 (μg/g or μg/mL) were determined for each mouse, and the mean and standard deviation were further obtained (Table S7).

[1] = 24 h, individual mice, 40 mg/kg

SHR9146 concentration in Bladder (1 h, individual mice, 40 mg/kg): 21.036 µg/g and 16.223 µg/g
SHR9146 concentration in Kidney (1 h, individual mice, 40 mg/kg): 18.490 µg/g and 14.219 µg/g
SHR9146 concentration in Liver (1 h, individual mice, 40 mg/kg): 26.622 µg/g and 23.393 µg/g
SHR9146 concentration in Lung (1 h, individual mice, 40 mg/kg): 20.029 µg/g and 15.217 µg/g
SHR9146 concentration in Pancreas (1 h, individual mice, 40 mg/kg): 22.508 µg/g and 15.532 µg/g
SHR9146 concentration in Small intestine (1 h, individual mice, 40 mg/kg): 22.755 µg/g and 23.199 µg/g
SHR9146 concentration in Small intestine (3 h, individual mice, 40 mg/kg): 22.446 µg/g and 12.038 µg/g
SHR9146 concentration in Adrenal gland (6 h, individual mice, 40 mg/kg): 4.009 µg/g and 0.427 µg/g and 1.219 µg/g
SHR9146 concentration in Bladder (6 h, individual mice, 40 mg/kg): 1.685 μg/g and BLQ and 0.201 μg/g
SHR9146 concentration in Brain (6 h, individual mice, 40 mg/kg): BLQ
SHR9146 concentration in Kidney (6 h, individual mice, 40 mg/kg): 3.007 µg/g and 0.546 µg/g and 0.744 µg/g
SHR9146 concentration in Liver (6 h, individual mice, 40 mg/kg): 4.132 µg/g and 0.621 µg/g and 1.090 µg/g
SHR9146 concentration in Lung (6 h, individual mice, 40 mg/kg): 2.446 µg/g and 0.717 µg/g and 0.984 µg/g
SHR9146 concentration in Ovary (6 h, individual mice, 40 mg/kg): BLQ
SHR9146 concentration in Pancreas (6 h, individual mice, 40 mg/kg): 1.674 µg/g and 0.089 µg/g and 0.150 µg/g
SHR9146 concentration in Skeletal muscle (6 h, individual mice, 40 mg/kg): BLQ
SHR9146 concentration in Small intestine (6 h, individual mice, 40 mg/kg): 1.815 µg/g and 0.395 µg/g and 0.288 µg/g
SHR9146 concentration in Spleen (6 h, individual mice, 40 mg/kg): BLQ
SHR9146 concentration in Uterus (6 h, individual mice, 40 mg/kg): BLQ
SHR9146 concentration in Whole blood (6 h, individual mice, 40 mg/kg): BLQ
SHR9146 concentration in Abdominal fat (24 h, individual mice): BLQ
SHR9146 concentration in Bladder (24 h, individual mice): BLQ
SHR9146 concentration in Brain (24 h, individual mice): BLQ
SHR9146 concentration in Heart (24 h, individual mice): BLQ
SHR9146 concentration in Kidney (24 h, individual mice): BLQ
SHR9146 concentration in Ovary (24 h, individual mice): BLQ
SHR9146 concentration in Pancreas (24 h, individual mice): BLQ
SHR9146 concentration in Plasma (24 h, individual mice): BLQ
SHR9146 concentration in Skeletal muscle (24 h, individual mice): BLQ
SHR9146 concentration in Skin (24 h, individual mice): BLQ
SHR9146 concentration in Small intestine (24 h, individual mice): BLQ
SHR9146 concentration in Spleen (24 h, individual mice): BLQ
SHR9146 concentration in Uterus (24 h, individual mice): BLQ
SHR9146 concentration in Whole blood (24 h, individual mice): BLQ
SHR9146 concentration in thyroid gland (24 h, individual mice): BLQ
SHR9146 concentration in Adrenal gland [1]: 0.185 µg/g
SHR9146 concentration in Liver [1]: BLQ and 0.058 μg/g
SHR9146 concentration in Lung [1]: 0.151 µg/g and 0.191 µg/g
concentration at 1 h (abdominal fat, 40 mg/kg, 1 h, Mean (n=3), read-out: SHR9146 concentration in Abdominal fat): 13500 ng/g
concentration at 1 h (abdominal fat, 40 mg/kg, 1 h, individual mice, read-out: SHR9146 concentration in Abdominal fat): 11600 ng/g
concentration at 3 h (abdominal fat, 40 mg/kg, 3 h, Mean (n=3), read-out: SHR9146 concentration in Abdominal fat): 8930 ng/g
concentration at 6 h (abdominal fat, 40 mg/kg, 6 h, Mean (n=3), read-out: SHR9146 concentration in Abdominal fat): 416 ng/g
concentration at 1 h (adrenal gland, 40 mg/kg, 1 h, Mean (n=3), read-out: SHR9146 concentration in Adrenal gland): 36600 ng/g
concentration at 1 h (adrenal gland, 40 mg/kg, 1 h, individual mice, read-out: SHR9146 concentration in Adrenal gland): 31300 ng/g
concentration at 3 h (adrenal gland, 40 mg/kg, 3 h, Mean (n=3), read-out: SHR9146 concentration in Adrenal gland): 27800 ng/g
concentration at 6 h (adrenal gland, 40 mg/kg, 6 h, Mean (n=3), read-out: SHR9146 concentration in Adrenal gland): 1880 ng/g
concentration at 24 h (adrenal gland, 40 mg/kg, 24 h, Mean (n=3), read-out: SHR9146 concentration in Adrenal gland): 195 ng/g
concentration at 24 h (adrenal gland, 40 mg/kg, 24 h, individual mice, read-out: SHR9146 concentration in Adrenal gland): 214 ng/g
concentration at 1 h (bladder, 40 mg/kg, 1 h, Mean (n=3), read-out: SHR9146 concentration in Bladder): 16800 ng/g
concentration at 1 h (bladder, 40 mg/kg, 1 h, individual mice, read-out: SHR9146 concentration in Bladder): 13200 ng/g
concentration at 3 h (bladder, 40 mg/kg, 3 h, Mean (n=3), read-out: SHR9146 concentration in Bladder): 10500 ng/g
concentration at 6 h (bladder, 40 mg/kg, 6 h, Mean (n=3), read-out: SHR9146 concentration in Bladder): 629 ng/g
concentration at 1 h (brain, 40 mg/kg, 1 h, Mean (n=3), read-out: SHR9146 concentration in Brain): 2370 ng/g
concentration at 1 h (brain, 40 mg/kg, 1 h, individual mice, read-out: SHR9146 concentration in Brain): 2190 ng/g
concentration at 3 h (brain, 40 mg/kg, 3 h, Mean (n=3), read-out: SHR9146 concentration in Brain): 1560 ng/g
concentration at 6 h (brain, 40 mg/kg, 6 h, Mean (n=3), read-out: SHR9146 concentration in Brain): 87 ng/g
concentration at 6 h (brain, 40 mg/kg, 6 h, individual mice, read-out: SHR9146 concentration in Brain): 261 ng/g
concentration at 1 h (heart, 40 mg/kg, 1 h, Mean (n=3), read-out: SHR9146 concentration in Heart): 9540 ng/g
concentration at 1 h (heart, 40 mg/kg, 1 h, individual mice, read-out: SHR9146 concentration in Heart): 7410 ng/g
concentration at 3 h (heart, 40 mg/kg, 3 h, Mean (n=3), read-out: SHR9146 concentration in Heart): 7040 ng/g
concentration at 6 h (heart, 40 mg/kg, 6 h, Mean (n=3), read-out: SHR9146 concentration in Heart): 334 ng/g
concentration at 1 h (kidney, 40 mg/kg, 1 h, Mean (n=3), read-out: SHR9146 concentration in Kidney): 15300 ng/g
SMILES: OCCn1cc(-c2ccc(N3CCC([C@H]4c5c(F)cccc5-c5cncn54)CC3)cc2)cn1 [SHR9146]
SHR9146 concentration in Bladder (3 h, individual mice, 40 mg/kg): 10.878 µg/g and 14.604 µg/g and 5.984 µg/g
SHR9146 concentration in Kidney (3 h, individual mice, 40 mg/kg): 12.786 µg/g and 17.400 µg/g and 8.011 µg/g
SHR9146 concentration in Liver (3 h, individual mice, 40 mg/kg): 20.374 µg/g and 27.066 µg/g and 11.815 µg/g
SHR9146 concentration in Lung (3 h, individual mice, 40 mg/kg): 12.019 µg/g and 16.499 µg/g and 48.938 µg/g
SHR9146 concentration in Pancreas (3 h, individual mice, 40 mg/kg): 13.466 µg/g and 17.374 µg/g and 6.520 µg/g
